In ChEMBL document CHEMBL4184333, “Expanding Benzoxazole-Based Inosine 5'-Monophosphate Dehydrogenase (IMPDH) Inhibitor Structure-Activity As Potential Antituberculosis Agents” (J Med Chem, 2018):
In brackets after ≈: the same amount, converted by molar mass. Activity calls are given as the source filed them. The rule behind the calls is not given here.

Experiments:
GMP reductase 2 = target: T1, GMP reductase 2 (Homo sapiens, UniProt Q9P2T1); assay: Inhibition of human GMPR2 using GMP as substrate by spectrophotometric method; details: read-out: Ki(app)
T1 sequence (Q9P2T1 whole entry): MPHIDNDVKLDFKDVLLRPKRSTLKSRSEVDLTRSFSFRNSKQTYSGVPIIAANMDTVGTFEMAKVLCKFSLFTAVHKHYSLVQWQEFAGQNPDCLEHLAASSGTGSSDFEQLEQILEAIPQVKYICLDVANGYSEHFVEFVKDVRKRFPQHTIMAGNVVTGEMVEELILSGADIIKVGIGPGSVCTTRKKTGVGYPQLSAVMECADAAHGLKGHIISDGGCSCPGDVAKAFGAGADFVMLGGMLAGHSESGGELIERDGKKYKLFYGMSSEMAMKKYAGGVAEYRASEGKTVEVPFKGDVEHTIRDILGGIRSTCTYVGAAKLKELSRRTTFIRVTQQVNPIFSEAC

[1] = test system: Mycobacterium tuberculosis; assay: Antitubercular activity against Mycobacterium tuberculosis H37Rv ATCC 27294 using 7H9/ADC/Tween medium after 1 week in presence of guanine by broth microdilution method; format: functional; details: H37Rv ATCC 27294, 168 h
[2] = target: Inosine-5'-monophosphate dehydrogenase 2 (Homo sapiens, UniProt P12268); assay: Inhibition of human IMPDH2 using IMP as substrate by spectrophotometric method; details: read-out: Ki(app)
[3] = test system: Mycobacterium tuberculosis; assay: Antitubercular activity against Mycobacterium tuberculosis H37Rv ATCC 27294 using 7H9/ADC/Tween medium after 1 week in absence of guanine by broth microdilution method; format: functional; details: H37Rv ATCC 27294, 168 h
[4] = test system: Mycobacterium tuberculosis; assay: Antitubercular activity against Mycobacterium tuberculosis H37Rv ATCC 27294 using GAST/Fe medium after 1 week in presence of guanine by broth microdilution method; format: functional; details: H37Rv ATCC 27294, 168 h
[5] = test system: Mycobacterium tuberculosis; assay: Antitubercular activity against Mycobacterium tuberculosis H37Rv ATCC 27294 using GAST/Fe medium after 1 week in absence of guanine by broth microdilution method; format: functional; details: H37Rv ATCC 27294, 168 h
[6] = test system: Mycobacterium tuberculosis; assay: Antitubercular activity against Mycobacterium tuberculosis H37Rv ATCC 27294 using 7H9/ADC/Tween medium after 1 week in absence of guanine and presence of anhydrotetracycline by Alamar blue assay; format: functional; details: H37Rv ATCC 27294, 168 h
[7] = test system: Mycobacterium tuberculosis; assay: Antitubercular activity against Mycobacterium tuberculosis H37Rv ATCC 27294 using 7H9/ADC/Tween medium after 2 weeks in absence of guanine by broth microdilution method; format: functional, organism-based
[8] = test system: Mycobacterium tuberculosis; assay: Antitubercular activity against Mycobacterium tuberculosis H37Rv ATCC 27294 using GAST/Fe medium after 2 weeks in absence of guanine by broth microdilution method; format: functional, organism-based
[9] = Cytotoxicity against human HepG2 cells after 24 hrs by LDH release assay; format: cell-based; details: HepG2 cells, read-out: LD50
HepG2 = assay: Cytotoxicity against human HepG2 cells assessed as LDH release at 25 uM after 24 hrs relative to control; format: cell-based; details: hepg2, 24 h

SMILES | Ki (GMP reductase 2) [µM] | MIC [1] [µM] | Ki [2] [µM] | MIC [3] [µM] | MIC [4] [µM] | MIC [5] [µM] | MIC [6] [µM] | Activity [7] | Activity [8] | CC50 at 24 h [9] [µM] | Activity (HepG2) [%]
COc1ccc(OC(C)C(=O)Nc2ccc3oc(-c4ccncc4)nc3c2)cc1 (stereo not drawn) | > 5 | 21 | > 5 | 10 to 12.5 (≈ 3.89 to 4.87 µg/mL) | 24 | 5.3 (≈ 2.06 µg/mL) | 12.5 |  |  |  | 
C[C@H](Oc1cccc(Cl)c1Cl)C(=O)Nc1ccc2oc(-c3ccc(CN)cc3)nc2c1 | > 5 | 25 | > 5 | 25 (≈ 11.4 µg/mL) | 11 | 11 (≈ 5.02 µg/mL) |  |  |  |  | 
C[C@H](Oc1ccc(F)c(F)c1F)C(=O)Nc1ccc2oc(-c3ccc(C#N)cc3)nc2c1 | > 5 | > 50 | > 5 | > 50 | > 50 | > 50 |  |  |  |  | 
COc1ccc(-c2nc3cc(NC(=S)[C@H](C)Oc4cccc(Cl)c4Cl)ccc3o2)cc1 | > 5 | > 50 | > 5 | > 50 | > 50 | 37 (≈ 17.5 µg/mL) |  |  |  |  | 
C[C@H](Oc1cccc(Cl)c1Cl)C(=O)Nc1ccc2oc(-c3ccc(C(N)=O)cc3)nc2c1 | > 5 |  | > 5 |  |  |  |  |  |  |  | 
C[C@H](Oc1ccccc1OCc1ccccc1)C(=O)Nc1ccc2oc(-c3ccc(C#N)cc3)nc2c1 | > 5 |  | > 5 |  |  |  |  |  |  |  | 
C[C@H](Oc1cccc(F)c1C#N)C(=O)Nc1ccc2oc(-c3ccncc3)nc2c1 | > 5 | 8 | > 5 | 4 (≈ 1.61 µg/mL) | 11 | 6 (≈ 2.41 µg/mL) |  |  |  |  | 
COc1ccc(-c2nc3cc(NC(=O)[C@H](C)Oc4cccc(Cl)c4Cl)ccc3o2)cc1 | > 5 | > 50 | > 5 | > 50 | > 50 | > 50 |  |  |  |  | 
C[C@H](Nc1cccc(Cl)c1Cl)C(=O)Nc1ccc2oc(-c3ccc(C#N)cc3)nc2c1 | > 5 | 6 | 3.3 | 3 (≈ 1.35 µg/mL) | 13 | 4 (≈ 1.81 µg/mL) |  | Active | Active |  | 
COc1ccc(-c2nc3cc(NC(=O)[C@H](C)Oc4ccccc4C#N)ccc3o2)cc1 | > 5 | 4.7 | > 5 | 1.2 (≈ 0.496 µg/mL) | 6.3 | 3.1 (≈ 1.28 µg/mL) |  | Active | Active | > 25 | 9 to 13
C[C@H](Oc1cccc(Cl)c1Cl)C(=O)Nc1ccc2oc(-c3ccc(C(=O)NN)cc3)nc2c1 | > 5 |  | > 5 |  |  |  |  |  |  |  | 
COc1ccc(-c2nc3cc(NC(=O)[C@H](C)Oc4cccc(F)c4F)ccc3o2)cc1 | > 5 | 14 | > 5 | 4 (≈ 1.7 µg/mL) | 8 | 5 (≈ 2.12 µg/mL) |  |  |  |  | 
C[C@H](Oc1cccc(Cl)c1Cl)C(=O)Nc1ccc2oc(-c3cc[n+]([O-])cc3)nc2c1 | > 5 |  | > 5 |  |  |  |  |  |  |  | 
C[C@H](Oc1cccc(Cl)c1Cl)C(=O)Nc1ccc2oc(-c3ccc(F)cc3)nc2c1 | > 5 | > 50 | > 5 | > 50 | > 50 | > 50 |  |  |  |  | 
C[C@H](Oc1cccc(Cl)c1Cl)C(=O)Nc1ccc2oc(-c3ccc(O)cc3)nc2c1 | > 5 |  | > 5 |  |  |  |  |  |  |  | 
C[C@H](Oc1cccc(Cl)c1Cl)C(=O)Nc1ccc2oc(-c3cccc(O)c3)nc2c1 | > 5 |  | > 5 |  |  |  |  |  |  |  | 
C[C@H](Oc1cccc(Cl)c1Cl)C(=O)Nc1ccc2oc(-c3ccc(-c4n[nH]c(=O)o4)cc3)nc2c1 | > 5 | > 50 | 2.9 | > 50 | > 50 | > 50 |  |  |  |  | 
C[C@H](Oc1cccc(F)c1F)C(=O)Nc1ccc2oc(-c3ccc(C#N)cc3)nc2c1 | > 5 | 4 | 2 | 1.5 (≈ 0.629 µg/mL) | 6.3 | 3 (≈ 1.26 µg/mL) |  |  |  | > 25 | 9 to 13
COc1ccc(-c2cn3cc(NC(=O)[C@H](C)Oc4cccc(Cl)c4Cl)ccc3n2)cc1 | > 5 |  | > 5 |  |  |  |  |  |  |  | 
C[C@H](Oc1cccc2c1B(O)OC2)C(=O)Nc1ccc2oc(-c3ccc(C#N)cc3)nc2c1 | > 5 |  | > 5 |  |  |  |  |  |  |  | 
C[C@H](Oc1cccc(Cl)c1Cl)C(=O)Nc1ccc2oc(-c3ccc(C#N)cc3)nc2c1 | > 5 | 6 | 2.3 | 3 (≈ 1.36 µg/mL) | 5 | 4 (≈ 1.81 µg/mL) |  |  |  |  | 

SMILES | Ki (GMP reductase 2) [µM] | MIC [1] [µM] | Ki [2] [µM] | MIC [3] [µM] | MIC [4] [µM] | MIC [5] [µM] | MIC [6] [µM] | Activity [7] | Activity [8] | CC50 at 24 h [9] [µM] | Activity (HepG2) [%]
COc1ccc(-c2nc3cc(NC(=O)[C@H](C)Oc4cccc(Cl)c4Cl)ccc3o2)cn1 | > 5 | > 25 | > 5 | 6 (≈ 2.75 µg/mL) | 9 | 7 (≈ 3.21 µg/mL) |  |  |  |  | 
C[C@H](Oc1cccc(Cl)c1Cl)C(=O)Nc1ccc2oc(-c3ccc(OC(F)(F)F)cc3)nc2c1 | > 5 | > 50 | > 5 | > 50 | > 50 | > 50 |  |  |  |  | 
CCOC(=O)COc1cccc(-c2nc3cc(NC(=O)[C@H](C)Oc4cccc(Cl)c4Cl)ccc3o2)c1 | > 5 | 1.6 | > 5 | 1.6 (≈ 0.847 µg/mL) | 1.4 | 0.9 (≈ 0.476 µg/mL) |  |  |  |  | 
COc1ccc(Cc2nc3cc(NC(=O)[C@H](C)Oc4cccc(Cl)c4Cl)ccc3o2)cc1 | > 5 |  | > 5 |  |  |  |  |  |  |  | 
C[C@H](Oc1cccc(Cl)c1Cl)C(=O)Nc1ccc2oc(-c3ccc(C(=O)O)cc3)nc2c1 | > 5 | > 50 | > 5 | ≥ 25 | 5 | 4 (≈ 1.89 µg/mL) |  |  | Active |  | 
COc1ccc(-c2nc3cc(NC(=O)[C@H](C)Oc4ccccc4CN)ccc3o2)cc1 | > 5 | 9.4 | > 5 | 5.5 (≈ 2.3 µg/mL) | 16 | 9.4 (≈ 3.92 µg/mL) |  |  |  |  | 
C[C@H](Oc1cccc(Cl)c1Cl)C(=O)Nc1ccc2oc(-c3ccc(-c4noc(=O)[nH]4)cc3)nc2c1 | > 5 |  | > 5 |  |  |  |  |  |  |  | 
C[C@H](Oc1cccc(F)c1F)C(=O)Nc1ccc2oc(-c3ccc(F)cc3)nc2c1 | > 5 | > 50 | > 5 | > 50 | > 50 | > 50 |  |  |  |  | 
C[C@H](Oc1cccc(F)c1F)C(=O)Nc1ccc2oc(-c3ccc(O)cc3)nc2c1 | > 5 | > 30 | > 5 | 7 (≈ 2.87 µg/mL) | 19 | 6 (≈ 2.46 µg/mL) |  |  |  |  | 
COc1ccc(-c2nc3cc(NC(=O)[C@H](C)Oc4cccc(F)c4F)ccc3o2)cn1 | > 5 | > 50 | > 5 | > 50 | 8 | 6 (≈ 2.55 µg/mL) |  |  |  |  | 
C[C@H](Oc1ccccc1C#N)C(=O)Nc1ccc2oc(-c3ccncc3)nc2c1 | > 5 |  | > 5 |  |  |  |  |  |  |  | 
COC(=O)c1ccc(-c2nc3cc(NC(=O)[C@H](C)Oc4cccc(Cl)c4Cl)ccc3o2)cc1 | > 5 |  | > 5 |  |  |  |  |  |  |  | 
C[C@H](Oc1cccc(Cl)c1Cl)C(=O)Nc1ccc2oc(-c3ccccc3O)nc2c1 | > 5 |  | > 5 |  |  |  |  |  |  |  | 
C[C@H](Oc1cccc(F)c1F)C(=O)Nc1ccc2oc(-c3ccncc3)nc2c1 | > 5 | 4 | > 5 | 1.9 (≈ 0.751 µg/mL) | 6.3 | 4 (≈ 1.58 µg/mL) |  | Active | Active |  | 
C[C@H](Oc1cccc(Cl)c1Cl)C(=O)Nc1ccc2oc(-c3ccc(/C(N)=N\O)cc3)nc2c1 | > 5 | > 50 | > 5 | > 50 | 25 | 25 (≈ 12.1 µg/mL) |  |  |  |  | 
C[C@H](Oc1cccc(Cl)c1Cl)C(=O)Nc1ccc2oc(-c3cccc(OCC(=O)O)c3)nc2c1 | > 5 |  | > 5 |  |  |  |  |  |  |  | 
C[C@H](Nc1cccc(Cl)c1Cl)C(=O)Nc1ccc2oc(-c3ccncc3)nc2c1 | > 5 | 35 | > 5 | 12 (≈ 5.13 µg/mL) | 50 | 6.7 (≈ 2.86 µg/mL) |  |  |  |  | 
C[C@H](Oc1cccc(Cl)c1Cl)C(=O)Nc1ccc2oc(-c3ccc(C(=O)NO)cc3)nc2c1 | > 5 | > 50 | > 5 | 30 (≈ 14.6 µg/mL) | 6 | 3 (≈ 1.46 µg/mL) |  |  | Active |  | 
C[C@H](Oc1cccc(Cl)c1Cl)C(=O)Nc1ccc2oc(-c3ccncc3)nc2c1 | > 5 | 28 | > 5 | 16 (≈ 6.85 µg/mL) | 37 | 9.4 (≈ 4.03 µg/mL) |  |  |  |  | 
C[C@H](Oc1ccccc1O)C(=O)Nc1ccc2oc(-c3ccc(C#N)cc3)nc2c1 | > 5 | 22 | > 5 | 9.4 (≈ 3.75 µg/mL) | 25 | 22 (≈ 8.79 µg/mL) |  |  |  |  | 
